Assay results reported in US20090247559A1 (Exelixis, Inc., priority 2007, published 2009).
pIC50: −log10 of the molar value. Like-named read-outs stand apart in the source and are kept apart here.

Key:
CK2 = CK2 (Homo sapiens, UniProt P68400); test: CK2 inhibition, biochemical chemiluminescence holoenzyme assay (Kinase Glo, IC50 determination); conditions: Table 1 activity class; symbol given only if active; read-out: CK2 IC50 (Activity C)
Outline: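 Holoenzyme CK2 assay; compounds pre-incubated with substrate and enzyme, then reacted 150 min at 24-27° C. Remaining ATP measured as luminescence with Kinase Glo, and IC50 derived from the signal.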

CDC7 = CDC7 (Homo sapiens, UniProt O00311); test: CDC7 inhibition, biochemical chemiluminescence assay (Kinase Glo, IC50 determination)
Sequence of CDC7 (O00311 whole entry): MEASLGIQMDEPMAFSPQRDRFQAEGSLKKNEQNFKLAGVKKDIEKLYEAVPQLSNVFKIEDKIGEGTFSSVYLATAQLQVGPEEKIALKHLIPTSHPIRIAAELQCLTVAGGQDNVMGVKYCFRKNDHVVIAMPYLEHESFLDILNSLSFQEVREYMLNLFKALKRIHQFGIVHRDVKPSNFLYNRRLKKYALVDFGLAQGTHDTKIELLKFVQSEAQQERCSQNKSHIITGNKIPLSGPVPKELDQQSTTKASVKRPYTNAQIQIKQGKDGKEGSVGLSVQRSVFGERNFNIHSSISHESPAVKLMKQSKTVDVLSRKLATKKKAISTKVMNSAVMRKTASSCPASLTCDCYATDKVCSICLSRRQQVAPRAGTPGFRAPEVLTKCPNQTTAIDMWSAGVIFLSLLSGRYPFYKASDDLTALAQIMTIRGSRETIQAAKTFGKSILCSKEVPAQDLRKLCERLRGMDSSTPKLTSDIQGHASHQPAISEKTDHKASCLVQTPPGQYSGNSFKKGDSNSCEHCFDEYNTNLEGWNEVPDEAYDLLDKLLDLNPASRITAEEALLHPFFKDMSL
Sequence of CDC7 (Q9UBU7 whole entry partner): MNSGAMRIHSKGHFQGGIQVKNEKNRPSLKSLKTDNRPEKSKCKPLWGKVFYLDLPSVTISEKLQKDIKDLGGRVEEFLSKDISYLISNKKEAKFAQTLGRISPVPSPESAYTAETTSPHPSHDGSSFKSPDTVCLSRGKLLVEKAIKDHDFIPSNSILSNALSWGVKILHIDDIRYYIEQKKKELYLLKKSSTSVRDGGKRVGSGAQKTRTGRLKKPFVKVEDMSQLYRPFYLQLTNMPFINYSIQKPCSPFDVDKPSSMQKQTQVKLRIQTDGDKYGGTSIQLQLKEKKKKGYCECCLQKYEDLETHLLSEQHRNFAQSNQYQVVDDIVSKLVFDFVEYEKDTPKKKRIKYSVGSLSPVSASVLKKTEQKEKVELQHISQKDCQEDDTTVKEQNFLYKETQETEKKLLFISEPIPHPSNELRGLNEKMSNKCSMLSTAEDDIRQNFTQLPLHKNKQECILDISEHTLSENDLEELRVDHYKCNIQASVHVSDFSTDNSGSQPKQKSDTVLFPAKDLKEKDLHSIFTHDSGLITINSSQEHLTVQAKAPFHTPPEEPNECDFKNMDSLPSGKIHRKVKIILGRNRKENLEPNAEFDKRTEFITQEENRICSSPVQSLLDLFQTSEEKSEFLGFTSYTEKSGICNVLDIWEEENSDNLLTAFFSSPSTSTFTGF
Method: Characterization of CDC7 Inhibition in a Biochemical Chemiluminesence Assay (IC50 Determination):
The IC50 evaluation of compounds against the CDC7 enzyme was performed in a Chemiluminesence assay utilizing a Greiner 384-well white binding plate format. […] Upon addition of 10 μL of CDC-7 (GB) to the designated well plates and subsequent incubation for ten minutes at ambient temperature, 10 μL of ATP mix in Tris Base was added. Following an incubation period of 90 minutes at ambient temperature (24-27° C.), 20 μL of Kinase Glo (Promega) was added to measure kinase activity by quantitating the amount of ATP remaining in solution. The luminescence was measured following a Luciferase Protocol on either EnVision or Victor plate readers.

[1] = target: PIM (PIM-1, PIM-2, and/or PIM-3); test: PIM-1, PIM-2 and PIM-3 inhibition, biochemical chemiluminescence assays (Kinase Glo, IC50 determination); conditions: Table 1 activity class; PIM refers to PIM-1, PIM-2, and/or PIM-3; read-out: PIM IC50 (Activity B)
[2] = Table 1 activity class, symbol given only if active, read-out: CDC7 IC50 (Activity A)
[3] = compounds in Table 1, read-out: CDC7 IC50 value
[4] = CDC7 IC50 (Activity A), Table 1 activity class, symbol given only if active

Sequence of CK2 (P68400 whole entry): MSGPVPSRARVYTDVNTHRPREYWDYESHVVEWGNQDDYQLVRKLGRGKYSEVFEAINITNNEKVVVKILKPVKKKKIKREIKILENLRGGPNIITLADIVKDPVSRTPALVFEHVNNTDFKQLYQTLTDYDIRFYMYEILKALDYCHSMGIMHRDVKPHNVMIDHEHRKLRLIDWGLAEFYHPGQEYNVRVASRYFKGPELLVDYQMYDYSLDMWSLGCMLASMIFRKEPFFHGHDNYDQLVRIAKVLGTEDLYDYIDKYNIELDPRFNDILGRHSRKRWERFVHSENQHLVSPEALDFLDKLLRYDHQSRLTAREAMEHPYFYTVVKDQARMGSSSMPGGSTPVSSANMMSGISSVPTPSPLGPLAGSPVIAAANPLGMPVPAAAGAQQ
Sequence of CK2 (P67870 whole entry partner): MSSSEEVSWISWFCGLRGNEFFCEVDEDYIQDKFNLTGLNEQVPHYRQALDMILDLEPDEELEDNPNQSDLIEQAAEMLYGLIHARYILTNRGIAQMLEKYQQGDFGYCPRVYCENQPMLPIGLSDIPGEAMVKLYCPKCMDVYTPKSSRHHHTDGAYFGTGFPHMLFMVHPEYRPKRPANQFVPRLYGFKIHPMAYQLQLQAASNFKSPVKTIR

SMILES | pIC50 (CK2) | pIC50 (CDC7; [2]) | pIC50 [1] | pIC50 (CDC7; [3]) | pIC50 (CDC7; [4]) | pIC50 (CDC7; CDC7 IC50 value, compounds in Table 1)
CN(C)CC(=O)Nc1ccc(-c2nc3c(oc4ccc(Br)cc43)c(=O)[nH]2)c(Cl)c1 [Compound 127, N-[4-(8-bromo-4-oxo-3,4-dihydro[1]benzofuro[3,2-d]pyrimidin-2-yl)-3-chlorophenyl]-N′2′,N′2′-dimethylglycinamide] | > 5.00 | > 5.00 | > 5.00 | – | – | –
N[C@H](c1ccccc1)c1nc2c(oc3ccc(Br)cc32)c(=O)[nH]1 [Compound 490, 2-[(R)-amino(phenyl)methyl]-8-bromo[1]benzofuro[3,2-d]pyrimidin-4(3H)-one] | > 5.00 | > 5.00 | > 5.00 | > 7.00 | – | –
CCOC(=O)C1CCN(Cc2nc3c(oc4ccc(Br)cc43)c(=O)[nH]2)C1 (centres unmarked) [Compound 269, Ethyl 1-[(8-bromo-4-oxo-3,4-dihydro[1]benzofuro[3,2-d]pyrimidin-2-yl)methyl]pyrrolidine-3-carboxylate] | > 5.00 | > 5.00 | > 5.00 | > 7.00 | – | –
CCC(CC)NCc1nc2c(oc3ccc(Br)cc32)c(=O)[nH]1 [Compound 502, 8-bromo-2-{[(1-ethylpropyl)amino]methyl}[1]benzofuro[3,2-d]pyrimidin-4(3H)-one] | > 5.00 | > 5.00 | > 5.00 | > 7.00 | – | –
O=c1[nH]c(CNC2CC2)nc2c1oc1ccc(Br)cc12 [Compound 521, 8-bromo-2-[(cyclopropylamino)methyl][1]benzofuro[3,2-d]pyrimidin-4(3H)-one] | > 5.00 | > 5.00 | > 5.00 | > 7.00 | – | –
O=C(Nc1ccc(-c2nc3c(oc4ccc(Br)cc43)c(=O)[nH]2)c(Cl)c1)C1CCCNC1 (centres unmarked) [Compound 140, N-[4-(8-bromo-4-oxo-3,4-dihydro[1]benzofuro[3,2-d]pyrimidin-2-yl)-3-chlorophenyl]piperidine-3-carboxamide] | > 5.00 | > 5.00 | > 5.00 | – | – | –
COc1ccc(Br)c2oc3c(=O)[nH]c(CN4CC[C@H](O)C4)nc3c12 [Compound 428, 6-bromo-2-{[(3S)-3-hydroxypyrrolidin-1-yl]methyl}-9-(methyloxy)[1]benzofuro[3,2-d]pyrimidin-4(3H)-one] | > 5.00 | > 5.00 | > 5.00 | – | – | –
O=C(Nc1ccc(-c2nc3c(oc4ccc(Br)cc43)c(=O)[nH]2)c(Cl)c1)C1CCOC1 (centres unmarked) [Compound 313, N-[4-(8-bromo-4-oxo-3,4-dihydro[1]benzofuro[3,2-d]pyrimidin-2-yl)-3-chlorophenyl]tetrahydrofuran-3-carboxamide] | > 5.00 | > 5.00 | > 5.00 | – | – | –
O=c1[nH]c(-c2ccc([N+](=O)[O-])cc2Cl)nc2c1oc1ccc(Br)cc12 [Compound 33, 8-Bromo-2-(2-chloro-4-nitrophenyl)[1]benzofuro[3,2-d]pyrimidin-4(3H)-one] | > 5.00 | > 5.00 | > 5.00 | – | – | –
O=c1[nH]c(C2CCNCC2)nc2c1oc1ccc(Br)cc12 [Compound 157, 8-bromo-2-piperidin-4-yl[1]benzofuro[3,2-d]pyrimidin-4(3H)-one] | > 5.00 | > 5.00 | > 5.00 | > 7.00 | – | –
CN(C)Cc1cccc(-c2nc3c(oc4ccc(Br)cc43)c(=O)[nH]2)c1 [Compound 353, 8-Bromo-2-{3-[(dimethylamino)methyl]phenyl}[1]benzofuro[3,2-d]pyrimidin-4(3H)-one] | > 5.00 | > 5.00 | > 5.00 | – | – | –
Nc1ccc(Cl)c(-c2nc3c(oc4ccc(Br)cc43)c(=O)[nH]2)c1 [Compound 134, 2-(5-amino-2-chlorophenyl)-8-bromo[1]benzofuro[3,2-d]pyrimidin-4(3H)-one] | > 5.00 | > 5.00 | > 5.00 | – | – | –
O=c1[nH]c([C@@H]2C[C@H](O)CN2)nc2c1oc1ccc(Cl)cc12 [Compound 528, 8-chloro-2-[(2S,4S)-4-hydroxypyrrolidin-2-yl][1]benzofuro[3,2-d]pyrimidin-4(3H)-one] | > 5.00 | > 5.00 | > 5.00 | > 7.00 | – | –
O=c1[nH]c([C@@H]2CC3CCCCC3N2)nc2c1oc1ccc(Br)cc12 (stereo partly drawn) [Compound 501, 8-bromo-2-[(2S)-octahydro-1H-indol-2-yl][1]benzofuro[3,2-d]pyrimidin-4(3H)-one] | > 5.00 | – | > 5.00 | – | > 5.00 | > 7.00
C[Si](C)(C)C#Cc1ccc2oc3c(=O)[nH]c(CN4CC[C@H](O)C4)nc3c2c1 [Compound 459, 2-{[(3S)-3-hydroxypyrrolidin-1-yl]methyl}-8-[(trimethylsilyl)ethynyl][1]benzofuro[3,2-d]pyrimidin-4(3H)-one] | > 5.00 | – | > 5.00 | – | > 5.00 | –
O=c1[nH]c(CN2CCN(CCn3ccnc3)CC2)nc2c1oc1ccc(Br)cc12 [Compound 113, 8-bromo-2-({4-[2-(1H-imidazol-1-yl)ethyl]piperazin-1-yl}methyl)[1]benzofuro[3,2-d]pyrimidin-4(3H)-one] | > 5.00 | > 5.00 | > 5.00 | – | – | –
O=c1[nH]c(C2CCNC2)nc2c1oc1ccc(Br)cc12 (centres unmarked) [Compound 186, 8-bromo-2-pyrrolidin-3-yl[1]benzofuro[3,2-d]pyrimidin-4(3H)-one] | > 5.00 | > 5.00 | > 5.00 | > 7.00 | – | –
O=c1[nH]c(C2CNC2)nc2c1oc1ccc(Br)cc12 [Compound 198, 2-Azetidin-3-yl-8-bromo[1]benzofuro[3,2-d]pyrimidin-4(3H)-one] | > 5.00 | > 5.00 | > 5.00 | > 7.00 | – | –
O=c1[nH]c(CN2C[C@H](O)[C@@H](O)C2)nc2c1oc1ccc(Br)cc12 [Compound 333, 8-bromo-2-(((3 S,4S)-3,4-dihydroxypyrrolidin-1-yl)methyl)benzofuro[3,2-d]pyrimidin-4(3H)-one] | > 5.00 | > 5.00 | > 5.00 | > 7.00 | – | –
O=c1[nH]c(CN2CCC[C@H]2CO)nc2c1oc1ccc(Br)cc12 [Compound 366, 8-bromo-2-{[(2S)-2-(hydroxymethyl)pyrrolidin-1-yl]methyl}[1]benzofuro[3,2-d]pyrimidin-4(3H)-one] | > 5.00 | > 5.00 | > 5.00 | > 7.00 | – | –
CSc1ccc2oc3c(=O)[nH]c(CN4CC[C@H](O)C4)nc3c2c1 [Compound 442, 2-{[(3S)-3-hydroxypyrrolidin-1-yl]methyl}-8-(methylthio)[1]benzofuro[3,2-d]pyrimidin-4(3H)-one] | > 5.00 | > 5.00 | > 5.00 | > 7.00 | – | –
COc1ccc2oc3c(=O)[nH]c(C4CCCN4)nc3c2c1 (stereo in doubt) [Compound 494, 8-(methyloxy)-2-[(2S)-pyrrolidin-2-yl][1]benzofuro[3,2-d]pyrimidin-4(3H)-one] | > 5.00 | > 5.00 | > 5.00 | – | – | –
Cc1nccn1Cc1nc2c(oc3ccc(Br)cc32)c(=O)[nH]1 [Compound 100, 8-bromo-2-[(2-methyl-1H-imidazol-1-yl)methyl][1]benzofuro[3,2-d]pyrimidin-4(3H)-one] | > 5.00 | > 5.00 | > 5.00 | – | – | –
O=c1[nH]c(CN2CCCC(F)C2)nc2c1oc1ccc(Br)cc12 (centres unmarked) [Compound 317, 8-bromo-2-[(3-fluoropiperidin-1-yl)methyl][1]benzofuro[3,2-d]pyrimidin-4(3H)-one] | > 5.00 | > 5.00 | > 5.00 | > 7.00 | – | –
CN1CCN(c2ccc(CNCCc3nc4c(oc5ccc(Br)cc54)c(=O)[nH]3)cc2)CC1 [Compound 111, 8-bromo-2-[2-({[4-(4-methylpiperazin-1-yl)phenyl]methyl}amino)ethyl][1]benzofuro[3,2-d]pyrimidin-4(3H)-one] | > 5.00 | > 5.00 | > 5.00 | – | – | –
O=C(Cc1c[nH]cn1)Nc1ccc(-c2nc3c(oc4ccc(Br)cc43)c(=O)[nH]2)c(Cl)c1 [Compound 182, N-[4-(8-bromo-4-oxo-3,4-dihydro[1]benzofuro[3,2-d]pyrimidin-2-yl)-3-chlorophenyl]-2-(1H-imidazol-4-yl)acetamide] | > 5.00 | > 5.00 | > 5.00 | – | – | –
Cn1cnc(C(=O)Nc2ccc(-c3nc4c(oc5ccc(Br)cc54)c(=O)[nH]3)c(Cl)c2)c1 [Compound 389, N-[4-(8-bromo-4-oxo-3,4-dihydro[1]benzofuro[3,2-d]pyrimidin-2-yl)-3-chlorophenyl]-1-methyl-1H-imidazole-4-carboxamide] | > 5.00 | > 5.00 | > 5.00 | – | – | –
N[C@@H](c1ccccc1)c1nc2c(oc3ccc(Br)cc32)c(=O)[nH]1 [Compound 489, 2-[(S)-amino(phenyl)methyl]-8-bromo[1]benzofuro[3,2-d]pyrimidin-4(3H)-one] | > 5.00 | > 5.00 | > 5.00 | > 7.00 | – | –
